This test addresses T1, human mGluR5d (Homo sapiens, UniProt P41594).
T1 construct: expressed in transfected cells; host or cells: GHEK (HEK cells expressing a glutamate transporter) for the IP3 assay
Put plainly: Functional assessment of mGluR5 antagonism in cell lines expressing mGluR5d (FLIPR calcium mobilization / IP3 turnover; assay behind the values not specified). It counts as cell-based. To be noted: cells expressing human mGluR5d; FLIPR or IP3 assay not specified. The source says:
The pharmacological properties of the compounds of the invention can be analyzed using standard assays for functional activity. Examples of glutamate receptor assays are well known in the art as described in for example Aramori et al., Neuron 8:757 (1992), Tanabe et al., Neuron 8:169 (1992), Miller et al., J. Neuroscience 15: 6103 (1995), Balazs, et al., J. Neurochemistry 69:151 (1997). The methodology described in these publications is incorporated herein by reference. Conveniently, the compounds of the invention can be studied by means of an assay that measures the mobilization of intracellular calcium, [Ca^2+]i in cells expressing mGluR5.
Intracellular calcium mobilization was measured by detecting changes in fluorescence of cells loaded with the fluorescent indicator fluo-3. Fluorescent signals were measured using the FLIPR system (Molecular Devices). […]
FLIPR experiments were done using a laser setting of 0.800 W and a 0.4 second CCD camera shutter speed. […] After each addition of the compound, the fluorescence signal was sampled 50 times at 1 second intervals followed by 3 samples at 5 second intervals. Responses were measured as the peak height of the response within the sample period. […]
We have validated a secondary functional assay for mGluR5d based on Inositol Phosphate (IP3) turnover. IP3 accumulation is measured as an index of receptor mediated phospholipase C turnover. […]
Background: A change in cytosolic calcium serves as a functional read-out for many receptors and channels.

For orientation: IC50 means the concentration needed to halve the response being measured.

Molecules are shown by their SMILES.

T1 sequence (P41594 21-942 isoform P41594-3 limits assumed): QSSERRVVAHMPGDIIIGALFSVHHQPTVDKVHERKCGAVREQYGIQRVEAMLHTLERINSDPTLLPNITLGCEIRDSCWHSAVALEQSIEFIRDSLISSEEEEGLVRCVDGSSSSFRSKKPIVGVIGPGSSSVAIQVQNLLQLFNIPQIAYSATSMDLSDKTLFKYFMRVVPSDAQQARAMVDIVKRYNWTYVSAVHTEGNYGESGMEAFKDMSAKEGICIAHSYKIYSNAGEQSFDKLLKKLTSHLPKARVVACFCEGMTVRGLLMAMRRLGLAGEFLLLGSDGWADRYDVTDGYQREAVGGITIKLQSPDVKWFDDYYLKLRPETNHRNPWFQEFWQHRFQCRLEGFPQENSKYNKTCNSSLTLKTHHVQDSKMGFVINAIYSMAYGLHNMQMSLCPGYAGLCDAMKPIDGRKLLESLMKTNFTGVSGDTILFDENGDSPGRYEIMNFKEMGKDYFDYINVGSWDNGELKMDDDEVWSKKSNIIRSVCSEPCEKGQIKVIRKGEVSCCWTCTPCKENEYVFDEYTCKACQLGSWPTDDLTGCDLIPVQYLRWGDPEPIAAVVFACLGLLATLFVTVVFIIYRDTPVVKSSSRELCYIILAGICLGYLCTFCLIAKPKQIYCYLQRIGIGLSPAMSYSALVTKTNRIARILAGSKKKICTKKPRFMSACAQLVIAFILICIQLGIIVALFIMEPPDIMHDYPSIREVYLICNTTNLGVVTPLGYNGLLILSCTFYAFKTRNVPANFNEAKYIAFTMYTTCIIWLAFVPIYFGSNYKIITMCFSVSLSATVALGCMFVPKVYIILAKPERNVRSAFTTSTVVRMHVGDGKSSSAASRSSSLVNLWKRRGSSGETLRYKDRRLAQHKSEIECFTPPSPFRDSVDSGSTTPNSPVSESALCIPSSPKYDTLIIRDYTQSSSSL

With `CC(c1cn(-c2cccc(Cl)c2)nn1)N1CCN(c2ncccc2C#N)CC1` (centres unmarked) [Example 15.16, 2-(4-{1-[1-(3-chlorophenyl)-1H-1,2,3-triazol-4-yl]ethyl}piperazin-1-yl)nicotinonitrile], the IC50 amounted to 1080 nM. In the case of `CC(c1cn(-c2cccc(Cl)c2)nn1)N1CCN(c2ccc(C#N)cn2)CC1` (centres unmarked) [Example 15.17, 6-(4-{1-[1-(3-chlorophenyl)-1H-1,2,3-triazol-4-yl]ethyl}piperazin-1-yl)nicotinonitrile] it was 159 nM.

(Values after patent publication US20080312246A1, “Substituted Piperazines as Metabotropic Glutamate Receptor Antagonists” (AstraZeneca AB, priority 2005, published 2008).)
